Assay results: patent US20230085307A1, “PYRIDAZINONE COMPOUND AND HERBICIDE” (NISSAN CHEMICAL CORPORATION, priority 2019, published 2023)

Columns and labels:
velvetleaf [1] = assay: Test Example 5: herbicidal effect by foliage application, plastic box (Table 20, symbol M); type: in vivo, velvetleaf (Abutilon theophrasti); details: 320 g/ha, foliage application after 14-day growth, evaluated three weeks after application
Procedure, shortened: (§1)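 Foliar spray test: emulsion formulation diluted in water to a set application rate, sprayed onto 14-day-old plants raised in diluvial soil at 25° C to 30° C under glass. Both herbicidal effect and crop effect rated visually three weeks later.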

lambsquarters [2] = assay: Test Example 5: herbicidal effect by foliage application, plastic box (Table 20, symbol O); type: in vivo, lambsquarters (Chenopodium album); details: 320 g/ha, foliage application after 14-day growth, evaluated three weeks after application
Procedure, shortened: as §1

southern crabgrass [3] = assay: Test Example 4: herbicidal effect by soil treatment (Table 19, symbol F); type: in vivo, southern crabgrass (Digitaria ciliaris); details: amount of applied herbicide 320 g/ha
Procedure, shortened: (§2)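 Herbicidal effect was rated 3 weeks after treatment, using the scoring criteria of an earlier test. The compound, formulated as an emulsion and diluted in water to a set herbicide amount, had been sprayed uniformly on soil over freshly sown seeds. Growth took place in a greenhouse at 25° C. to 30° C.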

redroot pigweed [4] = assay: Test Example 4: herbicidal effect by soil treatment (Table 19, symbol N); type: in vivo, redroot pigweed (Amaranthus retroflexus); details: amount of applied herbicide 320 g/ha
Procedure, shortened: as §2

blackgrass [5] = assay: Test Example 5: herbicidal effect by foliage application, plastic box (Table 20, symbol J); type: in vivo, blackgrass (Alopecurus myosuroides); details: 320 g/ha, foliage application after 14-day growth, evaluated three weeks after application
Procedure, shortened: as §1

windgrass = assay: Test Example 4: herbicidal effect by soil treatment (Table 19, symbol L); type: in vivo, windgrass (Apera spica-venti); details: amount of applied herbicide 320 g/ha
Procedure, shortened: as §2

barnyard grass [6] = assay: Test Example 4: herbicidal effect by soil treatment (Table 19, symbol H); type: in vivo, barnyard grass (Echinochloa crus-galli); details: amount of applied herbicide 320 g/ha
Procedure, shortened: as §2

southern crabgrass [7] = assay: Test Example 5: herbicidal effect by foliage application, plastic box (Table 20, symbol F); type: in vivo, southern crabgrass (Digitaria ciliaris); details: 320 g/ha, foliage application after 14-day growth, evaluated three weeks after application
Procedure, shortened: as §1

Italian ryegrass [8] = assay: Test Example 4: herbicidal effect by soil treatment (Table 19, symbol K); type: in vivo, Italian ryegrass (Lolium multiflorum); details: amount of applied herbicide 320 g/ha
Procedure, shortened: as §2

blackgrass [9] = assay: Test Example 4: herbicidal effect by soil treatment (Table 19, symbol J); type: in vivo, blackgrass (Alopecurus myosuroides); details: amount of applied herbicide 320 g/ha
Procedure, shortened: as §2

rice flat sedge = assay: Test Example 3: herbicidal effect by foliage application, Wagner pot (Table 18, symbol E); type: in vivo, rice flat sedge (Cyperus iria); details: 320 g/ha
Procedure, shortened: (§3)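 Plants were sown in alluvial soil held under 0.1–0.5 cm standing water and grown 14 days in a greenhouse at 25–30 °C. An emulsifiable formulation, water-diluted to the set dose, was then sprayed onto the foliage, and effects were scored three weeks later using previously defined criteria.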

Chinese sprangletop = assay: Test Example 3: herbicidal effect by foliage application, Wagner pot (Table 18, symbol D); type: in vivo, chinese sprangletop (Leptochloa chinensis); details: 320 g/ha
Procedure, shortened: as §3

lambsquarters [10] = assay: Test Example 4: herbicidal effect by soil treatment (Table 19, symbol O); type: in vivo, lambsquarters (Chenopodium album); details: amount of applied herbicide 320 g/ha
Procedure, shortened: as §2

wild oat [11] = assay: Test Example 5: herbicidal effect by foliage application, plastic box (Table 20, symbol I); type: in vivo, wild oat (Avena fatua); details: 320 g/ha, foliage application after 14-day growth, evaluated three weeks after application
Procedure, shortened: as §1

barnyard grass [12] = assay: Test Example 5: herbicidal effect by foliage application, plastic box (Table 20, symbol H); type: in vivo, barnyard grass (Echinochloa crus-galli); details: 320 g/ha, foliage application after 14-day growth, evaluated three weeks after application
Procedure, shortened: as §1

redroot pigweed [13] = assay: Test Example 5: herbicidal effect by foliage application, plastic box (Table 20, symbol N); type: in vivo, redroot pigweed (Amaranthus retroflexus); details: 320 g/ha, foliage application after 14-day growth, evaluated three weeks after application
Procedure, shortened: as §1

velvetleaf [14] = assay: Test Example 4: herbicidal effect by soil treatment (Table 19, symbol M); type: in vivo, velvetleaf (Abutilon theophrasti); details: amount of applied herbicide 320 g/ha
Procedure, shortened: as §2

Italian ryegrass [15] = assay: Test Example 5: herbicidal effect by foliage application, plastic box (Table 20, symbol K); type: in vivo, Italian ryegrass (Lolium multiflorum); details: 320 g/ha, foliage application after 14-day growth, evaluated three weeks after application
Procedure, shortened: as §1

persian speedwell [16] = assay: Test Example 5: herbicidal effect by foliage application, plastic box (Table 20, symbol R); type: in vivo, Persian speedwell (Veronica persica); details: 320 g/ha, foliage application after 14-day growth, evaluated three weeks after application
Procedure, shortened: as §1

green foxtail [17] = assay: Test Example 4: herbicidal effect by soil treatment (Table 19, symbol G); type: in vivo, green foxtail (Setaria viridis); details: amount of applied herbicide 320 g/ha
Procedure, shortened: as §2

chickweed [18] = assay: Test Example 4: herbicidal effect by soil treatment (Table 19, symbol P); type: in vivo, common chickweed (Stellaria media); details: amount of applied herbicide 320 g/ha
Procedure, shortened: as §2

barnyard grass [19] = assay: Test Example 3: herbicidal effect by foliage application, Wagner pot (Table 18, symbol H); type: in vivo, barnyard grass (Echinochloa crus-galli); details: 320 g/ha
Procedure, shortened: as §3

green foxtail [20] = assay: Test Example 5: herbicidal effect by foliage application, plastic box (Table 20, symbol G); type: in vivo, green foxtail (Setaria viridis); details: 320 g/ha, foliage application after 14-day growth, evaluated three weeks after application
Procedure, shortened: as §1

wild oat [21] = assay: Test Example 4: herbicidal effect by soil treatment (Table 19, symbol I); type: in vivo, wild oat (Avena fatua); details: amount of applied herbicide 320 g/ha
Procedure, shortened: as §2

chickweed [22] = assay: Test Example 5: herbicidal effect by foliage application, plastic box (Table 20, symbol P); type: in vivo, common chickweed (Stellaria media); details: 320 g/ha, foliage application after 14-day growth, evaluated three weeks after application
Procedure, shortened: as §1

persian speedwell [23] = assay: Test Example 4: herbicidal effect by soil treatment (Table 19, symbol R); type: in vivo, Persian speedwell (Veronica persica); details: amount of applied herbicide 320 g/ha
Procedure, shortened: as §2

Compound: Cc1nn(C)c(=O)c(-c2c(-c3ccc(Cl)cc3)sc3c(F)cccc23)c1O [4-040]
- herbicidal effect on M: velvetleaf (evaluation grade 0-5) (velvetleaf [1]): 4 (Herbicidal rate of 70% or more and less than 90%)
- herbicidal effect on O: lambsquarters (evaluation grade 0-5) (lambsquarters [2]): 3 (Herbicidal rate of 40% or more and less than 70%)
- Herbicidal effect by soil treatment, F: southern crabgrass (southern crabgrass [3]): 0 (Herbicidal rate of 5% or less (almost no effect))
- Herbicidal effect by soil treatment, N: redroot pigweed (redroot pigweed [4]): 3 (Herbicidal rate of 40% or more and less than 70%)
- herbicidal effect on J: blackgrass (evaluation grade 0-5) (blackgrass [5]): 3 (Herbicidal rate of 40% or more and less than 70%)
- Herbicidal effect by soil treatment, L: windgrass (windgrass): 0 (Herbicidal rate of 5% or less (almost no effect))
- Herbicidal effect by soil treatment, H: barnyard grass (barnyard grass [6]): 0 (Herbicidal rate of 5% or less (almost no effect))
- herbicidal effect on F: southern crabgrass (evaluation grade 0-5) (southern crabgrass [7]): 0 (Herbicidal rate of 5% or less (almost no effect))
- Herbicidal effect by soil treatment, K: Italian ryegrass (Italian ryegrass [8]): 2 (Herbicidal rate of 20% or more and less than 40%)
- Herbicidal effect by soil treatment, J: blackgrass (blackgrass [9]): 0 (Herbicidal rate of 5% or less (almost no effect))
- herbicidal effect on rice flat sedge (E) (rice flat sedge): 5 (Herbicidal rate of 90% or more (almost completely withered))
- herbicidal effect on Chinese sprangletop (D) (Chinese sprangletop): 4 (Herbicidal rate of 70% or more and less than 90%)
- Herbicidal effect by soil treatment, O: lambsquarters (lambsquarters [10]): 3 (Herbicidal rate of 40% or more and less than 70%)
- herbicidal effect on I: wild oat (evaluation grade 0-5) (wild oat [11]): 0 (Herbicidal rate of 5% or less (almost no effect))
- herbicidal effect on H: barnyard grass (evaluation grade 0-5) (barnyard grass [12]): 3 (Herbicidal rate of 40% or more and less than 70%)
- herbicidal effect on N: redroot pigweed (evaluation grade 0-5) (redroot pigweed [13]): 5 (Herbicidal rate of 90% or more (almost completely withered))
- Herbicidal effect by soil treatment, M: velvetleaf (velvetleaf [14]): 0 (Herbicidal rate of 5% or less (almost no effect))
- herbicidal effect on K: Italian ryegrass (evaluation grade 0-5) (Italian ryegrass [15]): 4 (Herbicidal rate of 70% or more and less than 90%)
- herbicidal effect on R: persian speedwell (evaluation grade 0-5) (persian speedwell [16]): 5 (Herbicidal rate of 90% or more (almost completely withered))
- Herbicidal effect by soil treatment, G: green foxtail (green foxtail [17]): 0 (Herbicidal rate of 5% or less (almost no effect))
- Herbicidal effect by soil treatment, P: chickweed (chickweed [18]): 1 (Herbicidal rate of 5% or more and less than 20%)
- herbicidal effect on barnyard grass (H) (barnyard grass [19]): 5 (Herbicidal rate of 90% or more (almost completely withered))
- herbicidal effect on G: green foxtail (evaluation grade 0-5) (green foxtail [20]): 4 (Herbicidal rate of 70% or more and less than 90%)
- Herbicidal effect by soil treatment, I: wild oat (wild oat [21]): 0 (Herbicidal rate of 5% or less (almost no effect))
- herbicidal effect on P: chickweed (evaluation grade 0-5) (chickweed [22]): 5 (Herbicidal rate of 90% or more (almost completely withered))
- Herbicidal effect by soil treatment, R: persian speedwell (persian speedwell [23]): 4 (Herbicidal rate of 70% or more and less than 90%)
